Data on 13 molecules can be found in patent publication US20230365554A1, “SUBSTITUTED PYRROLO-PYRIDINONE DERIVATIVES AND THERAPEUTIC USES THEREOF” (The Broad Institute, Inc., priority 2020, published 2023).

Structures are written as SMILES.

The target in one assay is human CSNK1D (Homo sapiens (Human), UniProt P48730). The assay can be described thus: CSNK1D assay (ADP-Glo, 1 μM ATP). The settings on record: median, Table 2, read-out: CSNK1D IC50 [mol/l] (median). The assay is classed as biochemical. The method, then:
CSNK1D-inhibitory activity of compounds of the present invention in presence of 1 μM adenosine-tri-phosphate (ATP) was quantified employing the CSNK1D assay as described in the following paragraphs. In essence, the enzyme activity is measured by quantification of the adenosine-di-phosphate (ADP), which is generated as a co-product of the enzyme reaction, via the “ADP-Glo™ Kinase Assay” kit from the company Promega. This detection system works as follows: In a first step the ATP not consumed in the kinase reaction is quantitatively converted to cAMP employing an adenylate cyclase (“ADP-Glo-reagent”), then the adenylate cyclase is stopped and the ADP generated in the kinase reaction converted to ATP which generates in a luciferase-based reaction a glow-luminescence signal (“Kinase Detection Reagent”).
Recombinant fusion protein of N-terminal Glutathion-S-Transferase (GST) and full-length human CSNK1D, expressed by baculovirus infected insect cells and purified via Glutathion affinity chromatography, was purchased from Life Technologies (product no. PV3665) and used as enzyme. As substrate for the kinase reaction the biotinylated peptide Btn-Ahx-SGSEGDSESGEEEG (C-terminus in amide form) was used which can be purchased e.g. from the company Biosyntan (Berlin-Buch, Germany).
For the assay 50 nl of a 100 fold concentrated solution of the test compound in DMSO was pipetted into a white 1536-well microtiter plate (Greiner Bio-One, Frickenhausen, Germany), 2 μL of a solution of CSNK1D in aqueous assay buffer [50 mM HEPES pH 7.5, 10% (v/v) glycerol, 10 mM MgCl2, 50 mM NaCl, 1 mM dithiothreitol, 0.01% (w/v) bovine serum albumin, 0.01% (v/v) Triton X-100] were added and the mixture was incubated for 15 min at 22° C. to allow pre-binding of the test compounds to the enzyme before the start of the kinase reaction. Then the kinase reaction was started by the addition of 3 μL of a solution of ATP (1.67 μM=>final conc. in the 5 μL assay volume is 1 μM) and peptide substrate (50 μM=>final conc. in the 5 μL assay volume is 30 μM) in assay buffer and the resulting mixture was incubated for a reaction time of 30 min at 22° C. The concentration of CSNK1D was adjusted depending of the activity of the enzyme lot and was chosen appropriate to have the assay in the linear range, a typical concentration is about 0.5 ng/μL. The reaction was stopped by the addition of 2.5 μL of “ADP-Glo-reagent” (1:1.5 fold diluted with water) and the resulting mixture was incubated at 22° C. for 1 h to convert the ATP not consumed in the kinase reaction completely […]. Subsequently 2.5 μL of the “kinase detection reagent” (1.2 fold more concentrated than recommended by the producer) were added, the resulting mixture was incubated at 22° C. for 1 h and then the luminescence measured with a suitable measurement instrument (e.g. Viewlux™ from Perkin-Elmer). The amount of emitted light was taken as a measure for the amount of ADP generated and thereby for the activity of the CSNK1D.
(§1) The data were normalised (enzyme reaction without inhibitor=0% inhibition, all other assay components but no enzyme=100% inhibition).
(In general: In ADP-Glo the light output rises with the ADP produced.)

A further assay addresses human CSNK1A1 (Homo sapiens (Human), UniProt P48729). The assay can be described thus: CSNK1A1 Assay 2 (ADP-Glo, 1 μM ATP). The assay is classed as biochemical. Particulars: median, Table 2, read-out: CSNK1A1 Assay 2 IC50 [mol/l] (median). How it is done: CSNK1A1-inhibitory activity of compounds of the present invention in presence of 1 μM adenosine-tri-phosphate (ATP) was quantified employing the CSNK1A1 assay as described in the following paragraphs. In essence, the enzyme activity is measured by quantification of the adenosine-di-phosphate (ADP), which is generated as a co-product of the enzyme reaction, via the “ADP-Glo™ Kinase Assay” kit from the company Promega. This detection system works as follows: In a first step the ATP not consumed in the kinase reaction is quantitatively converted to cAMP employing an adenylate cyclase (“ADP-Glo-reagent”), then the adenylate cyclase is stopped and the ADP generated in the kinase reaction converted to ATP which generates in a luciferase-based reaction a glow-luminescence signal (“Kinase Detection Reagent”).
Recombinant fusion protein of N-terminal Glutathion-S-Transferase (GST) and full-length human CSNK1A1, expressed by baculovirus infected insect cells and purified via Glutathion affinity chromatography, was purchased from Life Technologies (product no. PV4174) and used as enzyme. As substrate for the kinase reaction the biotinylated peptide biotin-Ahx-KRRRAL-pS-VASLPGL (C-terminus in amide form) was used which can be purchased e.g. from the company Biosyntan (Berlin-Buch, Germany).
For the assay 50 nl of a 100 fold concentrated solution of the test compound in DMSO was pipetted into a white 1536-well microtiter plate (Greiner Bio-One, Frickenhausen, Germany), 2 μL of a solution of CSNK1A1 in aqueous assay buffer [50 mM HEPES pH 7.5, 10% (v/v) glycerol, 10 mM MgCl2, 50 mM NaCl, 1 mM dithiothreitol, 0.01% (w/v) bovine serum albumin, 0.01% (v/v) Triton X-100] were added and the mixture was incubated for 15 min at 22° C. to allow pre-binding of the test compounds to the enzyme before the start of the kinase reaction. Then the kinase reaction was started by the addition of 3 μL of a solution of ATP (1.67 μM=>final conc. in the 5 μL assay volume is 1 μM) and peptide substrate (50 μM=>final conc. in the 5 μL assay volume is 30 μM) in assay buffer and the resulting mixture was incubated for a reaction time of 30 min at 22° C. The concentration of CSNK1A1 was adjusted depending of the activity of the enzyme lot and was chosen appropriate to have the assay in the linear range, a typical concentrations are about 0.0375 ng/μL. The reaction was stopped by the addition of 2.5 μL of “ADP-Glo-reagent” (1:1.5 fold diluted with water) and the resulting mixture was incubated at 22° C. for 1 h to convert the ATP not consumed in the kinase reaction completely […]. Subsequently 2.5 μL of the “kinase detection reagent” (1.2 fold more concentrated than recommended by the producer) were added, the resulting mixture was incubated at 22° C. for 1 h and then the luminescence measured with a suitable measurement instrument (e.g. Viewlux™ from Perkin-Elmer). The amount of emitted light was taken as a measure for the amount of ADP generated and thereby for the activity of the CSNK1A1.
as §1

Chain of human CSNK1A1 (P48729 whole entry): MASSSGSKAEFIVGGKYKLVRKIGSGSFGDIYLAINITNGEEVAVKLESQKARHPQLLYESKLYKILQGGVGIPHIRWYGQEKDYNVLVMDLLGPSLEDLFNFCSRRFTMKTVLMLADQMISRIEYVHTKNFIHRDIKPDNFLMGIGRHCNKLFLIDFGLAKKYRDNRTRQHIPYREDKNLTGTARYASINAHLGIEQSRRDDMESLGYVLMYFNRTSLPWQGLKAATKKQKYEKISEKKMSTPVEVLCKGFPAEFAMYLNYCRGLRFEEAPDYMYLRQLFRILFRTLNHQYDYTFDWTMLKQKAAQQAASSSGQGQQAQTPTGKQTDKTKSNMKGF
Chain of human CSNK1D (P48730 whole entry): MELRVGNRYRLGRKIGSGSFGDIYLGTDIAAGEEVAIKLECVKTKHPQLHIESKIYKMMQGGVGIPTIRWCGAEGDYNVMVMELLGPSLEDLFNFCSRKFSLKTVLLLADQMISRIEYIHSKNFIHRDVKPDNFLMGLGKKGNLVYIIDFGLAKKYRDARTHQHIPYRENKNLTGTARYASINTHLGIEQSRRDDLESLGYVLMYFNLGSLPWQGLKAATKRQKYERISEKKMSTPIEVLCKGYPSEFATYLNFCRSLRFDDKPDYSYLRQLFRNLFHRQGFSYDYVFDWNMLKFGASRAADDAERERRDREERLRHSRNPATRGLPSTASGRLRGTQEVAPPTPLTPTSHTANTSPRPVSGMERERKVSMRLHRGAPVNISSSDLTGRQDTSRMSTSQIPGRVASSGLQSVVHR

Take `CN1CC(CC(F)(F)F)c2[nH]c(-c3ccnc(NC(=O)Cc4ccc(F)cc4)c3)c(Nc3ccccc3)c2C1=O` (single isomer, unassigned) [Example 15, N-{4-[3-anilino-5-methyl-4-oxo-7-(2,2,2-trifluoroethyl)-4,5,6,7-tetrahydro-1H-pyrrolo[3,2-c]pyridin-2-yl]pyridin-2-yl}-2-(4-fluorophenyl)acetamide]: the IC50 was 20 nM on human CSNK1D and 9.4 nM on human CSNK1A1.

Regarding `CN1CC(CC2CC2)c2[nH]c(-c3ccnc(NC(=O)Cc4ccc(F)cc4)c3)c(Nc3cscn3)c2C1=O` (single isomer, unassigned) [Example 51, N-{4-[(7R or S)-7-(cyclopropylmethyl)-5-methyl-4-oxo-3-(1,3-thiazol-4-ylamino)-4,5,6,7-tetrahydro-1H-pyrrolo[3,2-c]pyridin-2-yl]pyridin-2-yl}-2-(4-fluorophenyl)acetamide], the figures for the IC50 on human CSNK1D and at human CSNK1A1 were 57 nM and 20 nM, respectively.

With `O=C1N[C@@H]2CCC[C@@H]2c2[nH]c(-c3ccnc(NC(=O)C(CC(F)F)c4ccc(F)cc4)c3)c(Nc3ccccc3)c21` (single isomer, unassigned; (-)) [Example 23, (−)-(2R or S)—N-{4-[cis-3-anilino-4-oxo-1,4,5,5a,6,7,8,8a-octahydrocyclopenta[b]pyrrolo[2,3-d]pyridin-2-yl]pyridin-2-yl}-4,4-difluoro-2-(4-fluorophenyl)butanamide], the figures for the IC50 at human CSNK1D and on human CSNK1A1 were 38 nM and 24 nM, respectively.

For `Cn1ccc2[nH]c(-c3ccnc(NC(=O)C(CC(F)F)c4ccc(F)cc4)c3)c(Nc3ccccc3)c2c1=O` (racemic) [Example 28, N-[4-(3-anilino-5-methyl-4-oxo-4,5-dihydro-1H-pyrrolo[3,2-c]pyridin-2-yl)pyridin-2-yl]-4,4-difluoro-2-(4-fluorophenyl)butanamide], the IC50 was 8.1 nM on human CSNK1D and 5.2 nM at human CSNK1A1.

Take `C[C@H](C(=O)Nc1cc(-c2[nH]c3ccn(C)c(=O)c3c2Nc2ccccc2)ccn1)c1ccc(F)cc1` (single isomer, unassigned) [Example 26]: the IC50 on human CSNK1D was 22 nM; on human CSNK1A1 it was 5.9 nM.

For `O=C1N[C@@H]2CCC[C@@H]2c2[nH]c(-c3ccnc(NC(=O)C(CC(F)F)c4ccc(F)cc4)c3)c(Nc3ccccc3)c21` (single isomer, unassigned; (-)) [Example 24, (−)-(2R or S)—N-{4-[cis-3-anilino-4-oxo-1,4,5,5a,6,7,8,8a-octahydrocyclopenta[b]pyrrolo[2,3-d]pyridin-2-yl]pyridin-2-yl}-4,4-difluoro-2-(4-fluorophenyl)butanamide], the IC50 came to 24 nM at human CSNK1D and 30 nM on human CSNK1A1.

In the case of `CCC1CNC(=O)c2c1[nH]c(-c1ccnc(NC(=O)Cc3ccc(F)cc3)c1)c2Nc1ccccc1` (racemic) [Example 1, N-{4-[3-anilino-7-ethyl-4-oxo-4,5,6,7-tetrahydro-1H-pyrrolo[3,2-c]pyridin-2-yl]pyridin-2-yl}-2-(4-fluorophenyl)acetamide], the results for the IC50 on human CSNK1D and at human CSNK1A1 were 5.5 nM and 1.5 nM, respectively.

In the case of `CN1CC(CC(F)(F)F)c2[nH]c(-c3ccnc(NC(=O)C(CC(F)F)c4ccc(F)cc4)c3)c(Nc3cscn3)c2C1=O` (racemic) [Example 52, (2RS)-4,4-difluoro-2-(4-fluorophenyl)-N-{4-[(7RS)-5-methyl-4-oxo-3-[(1,3-thiazol-4-yl)amino]-7-(2,2,2-trifluoroethyl)-4,5,6,7-tetrahydro-1H-pyrrolo[3,2-c]pyridin-2-yl]pyridin-2-yl}butanamide], the IC50 at human CSNK1D amounted to 12 nM; on human CSNK1A1, 7.9 nM.

For `CN1CC(CC(F)F)c2[nH]c(-c3ccnc(NC(=O)Cc4ccc(F)cc4)c3)c(Nc3ccccc3)c2C1=O` (single isomer, unassigned) [Example 43, N-{4-[3-anilino-7-(2,2-difluoroethyl)-5-methyl-4-oxo-4,5,6,7-tetrahydro-1H-pyrrolo[3,2-c]pyridin-2-yl]pyridin-2-yl}-2-(4-fluorophenyl)acetamide], the IC50 at human CSNK1D came out at 4.3 nM; at human CSNK1A1, 2.8 nM.

`Cc1cn(C)c(=O)c2c(Nc3ccccc3)c(-c3ccnc(NC(=O)C(CC(F)F)c4ccc(F)cc4)c3)[nH]c12` (single isomer, unassigned) [Example 13, N-[4-(3-anilino-5,7-dimethyl-4-oxo-4,5-dihydro-1H-pyrrolo[3,2-c]pyridin-2-yl)pyridin-2-yl]-4,4-difluoro-2-(4-fluorophenyl)butanamide]: the figures for the IC50 at human CSNK1D and on human CSNK1A1 were 22 nM and 19 nM, respectively.

`CN1CC(CC(F)(F)F)c2[nH]c(-c3ccnc(NC(=O)Cc4ccc(F)cc4)c3)c(Nc3cscn3)c2C1=O` (single isomer, unassigned) [Example 47, 2-(4-fluorophenyl)-N-{4-[(7R or S)-5-methyl-4-oxo-3-(1,3-thiazol-4-ylamino)-7-(2,2,2-trifluoroethyl)-4,5,6,7-tetrahydro-1H-pyrrolo[3,2-c]pyridin-2-yl]pyridin-2-yl}acetamide]: the figures for the IC50 on human CSNK1D and at human CSNK1A1 were 8.4 nM and 3.4 nM, respectively.

Take `CN1CC(CC(F)F)c2[nH]c(-c3ccnc(NC(=O)Cc4ccc(F)cc4)c3)c(Nc3ccccc3)c2C1=O` (racemic) [Example 42, N-{4-[3-anilino-7-(2,2-difluoroethyl)-5-methyl-4-oxo-4,5,6,7-tetrahydro-1H-pyrrolo[3,2-c]pyridin-2-yl]pyridin-2-yl}-2-(4-fluorophenyl)acetamide]: the figures for the IC50 on human CSNK1D and on human CSNK1A1 were 4.1 nM and 1.8 nM, respectively.

On to `Cn1cc(CC2CC2)c2[nH]c(-c3ccnc(NC(=O)Cc4ccc(F)cc4)c3)c(Nc3ccccc3)c2c1=O` [Example 32, N-{4-[3-anilino-7-(cyclopropylmethyl)-5-methyl-4-oxo-4,5-dihydro-1H-pyrrolo[3,2-c]pyridin-2-yl]pyridin-2-yl}-2-(4-fluorophenyl)acetamide], for which the IC50 at human CSNK1D came to 36 nM; on human CSNK1A1, 27 nM.
